Test results as given in US5811393A (The Childrens Medical Center Corp., priority 1993, dated 1998).
Values belong to the molecule of their own block, whether it stands above or below them.

Tests used:
[1] = test system: EGF receptor; assay: EGF receptor autophosphorylation in A-431 cells (anti-phosphotyrosine Western blot); type: cell-based, human; conditions: 5 ng/ml, 15 minutes
Protocol: This was shown by plating A-431 cells in 6-well plates and culturing in Dulbecco's Modified Eagle's Medium (DMEM) containing 10% fetal bovine serum and antibiotics. […] After 15 minutes, the cells were washed with ice-cold phosphate-buffered saline containing 0.4 mm EDTA, 10 mM Na-fluorate, 10 mM Na-pyrophosphate and 0.4 mM Na-orthovanadate, scraped and lysed in 100 μl of PI/RIPA buffer [1% NP-40 (Pierce, Rockford, Ill.), 1% deoxycholate (Aldrich, Milwaukee, Wis.), 0.1% SDS, 1% aprotinin (Boehringer-Mannheim, Indianapolis, Ind.), 1 mM PMSF (Pierce), 2 mM EDTA (Sigma), 10 mM Na-fluorate, (Sigma, St. Louis, Mo.), 10 mM Na-pyrophosphate (Baker, Phillipsburg, N.J.), 0.4 mM Na-orthovanadate, (Aldrich), 10 mM iodoacetamide (Aldrich) in phosphate buffered saline]. Thirty μl of supernatant clarified by spinning for a 5 minute period in a microfuge was analyzed by reducing SDS/polyacrylamide gel electrophoresis (6% polyacrylamide gel). […] A standard of phosphorylated EGF receptor was purchased from UBI (Lake Placid, N.Y.).

[2] = cited from earlier work
[3] = test system: EGF receptors on BASMC; assay: Competitive [125I]EGF binding to bovine aortic smooth muscle cells; conditions: BASMC
Protocol: Competitive binding assays were used to measure this interaction and were performed as follows.

[4] = test system: bovine aortic smooth muscle cells (BASMC); assay: Bovine aortic smooth muscle cell proliferation by cell counting; type: cell-based; conditions: cells counted after three days, 1% calf serum
Protocol: Bovine aortic smooth muscle cell proliferation was also assayed by counting cell number following growth factor stimulation. In these experiments, cells were plated sparsely in 24 well plates in DMEM/10% bovine calf serum/1% GPS (100% GPS is glutamine 29.2 mg/ml, penicillin 10,000 units/ml, streptomycin sulfate 10,000 μg/ml; GIBCO, Grand Island, N.Y.) at 10^4 cells/well. Test samples were then added and, after three days, cells were removed by trypsinization and counted in a Coulter counter (Coulter, Hialeah, Fla.).
BASMC were plated in DMEM, 10% calf serum, 100 U/ml penicillin, 100 μg/ml streptomycin sulfate at 5×10^3 cells/well in a 24 well plate, and, after attachment of the cells (e.g., following an overnight incubation), the media was replaced with DMEM, 1% calf serum, and penicillin and streptomycin as above. HB-EHM, recombinant human EGF (Creative Biomolecules, Hopkinton, Mass.), or recombinant PDGF (Creative Biomolecules, Hopkinton, Mass.) was then added to the wells. Cells were counted after three days.

[5] = molecular target: EGF receptor on bovine aortic smooth muscle cells (BASMC) (bovine)
[6] = molecular target: EGF receptor on bovine aortic smooth muscle cells (BASMC) (bovine); remark: listed apart in the source
[7] = test system: BALB/c mouse 3T3 cells; assay: DNA synthesis ([3H]-thymidine incorporation) / proliferation of BALB/c mouse 3T3 cells; type: cell-based; conditions: E. coli-produced protein
Protocol: Conditioned medium was assayed for growth factor activity directly, as described below, using either fibroblasts (i.e., BALB/c mouse 3T3 cells), epithelial cells (i.e., human keratinocytes), or smooth muscle cells (i.e., bovine aortic smooth muscle cells, BASMC). Alternatively, CM was first fractionated by fast protein liquid chromatography (FPLC, Pharmacia, Piscataway, N.J.) by applying 500 ml of the CM to a TSK-heparin 5PW column (8×75 mm, TOSOHAAS, Philadelphia, Pa.). The column was washed with 10 column volumes of equilibration buffer (0.2M NaCl, 0.01M Tris-HCl, pH 7.5), and bound protein was eluted with a 40 ml linear gradient of 0.2-2M NaCl in 0.01M Tris-HCl , pH 7.4 at 1 ml/min. Fractions (2.5 ml) were tested for growth factor activity by measuring the effect of aliquots of the fractions on DNA synthesis in, or the proliferation of, BALB/c mouse 3T3 cells; such activity was monitored by assaying the incorporation of [^3 H]-thymidine into DNA and/or by measuring the increase in cell number. […] One unit of BALB/c mouse 3T3 stimulation activity was defined as the amount of growth factor required to stimulate half-maximal DNA synthesis in BALB/c mouse 3T3 cells under the conditions described in Shing et al. (supra).

Molecule: PDGF
- NaCl concentration eluting from immobilized heparin columns ([2]; literature values): 0.5 M
- increase in BASMC proliferation ([4]; 500 pg/ml): 2.5 fold

B1: heparin binding EGF-homologous mitogen (HB-EHM), purified from U-937 conditioned medium, 33 minute peak form (ligand)
chain: RVTLSSKPQALATPNKEEHGKRKKKGKGLGKKRDPCLRKYKDFCIHGECKYVKELRAPSCICHPGYHGERCHGLS
modifications: O-linked glycosylation (suggested by O-glycanase treatment; the threonines predicted at positions 2 and 12 of the form first sequenced were not detected in protein sequencing)
- Maximal Stimulation (ng/ml), from 3H-thymidine incorporation into smooth muscle cell DNA, C4 RP-HPLC step [6]: 0.5 ng/mL
- BASMC proliferation (cell count after three days) (fold increase) [5]: 2.5

B2: recombinant HB-EHM: HB-EHM produced in E. coli from plasmid pNA28 as CAT fusion, cleaved, refolded and purified (protein)
chain: RVTLSSKPQALATPNKEEHGKRKKKGKGLGKKRDPCLRKYKDFCIHGECKYVKELRAPSCICHPGYHGERCHGLS
modifications: O-linked glycosylation (suggested by O-glycanase treatment; the threonines predicted at positions 2 and 12 of the form first sequenced were not detected in protein sequencing)
- activity in the BALB/c 3T3 [3H]-thymidine uptake/incorporation assay [7]: active

Continued, in another order:

- IC50 ([3]; read-out: 50% inhibition of [125I]EGF binding, molar value in brackets): 0.048 nM
Molecule: EGF: epidermal growth factor, recombinant human, commercial comparator [reference compound]
- autophosphorylation of the EGF receptor (170 kDa protein) [1]: also phosphorylated
- binding to heparin ([2]; conditions of the cited references): does not bind heparin to any substantial extent
- 50% inhibition of [125I]EGF binding ([3]; 6-well plates): 290 pg/mL
- increase in BASMC proliferation ([4]; 4 ng/ml): 2.5 fold

- BASMC proliferation (cell count after three days) (fold increase) [5]: 2.5
Molecule: recombinant human EGF (from UniProt P01133) (ligand)
